# Data published in ChEMBL document CHEMBL1129634, “Antimicrobial alpha, alpha-dialkylated amino acid rich peptides with in-vivo activity against an intracellular pathogen” (1996).
# Where a SMILES comes first, the peptide text is derived from it. [ ]: non-standard residue; d: D form. Ac6c = NC1(C(=O)O)CCCCC1; Api = NC1(C(=O)O)CCNCC1; Aib = CC(C)(N)C(=O)O
# Key:
# Assay type in all cases: functional
# [1] = tested on: Escherichia coli; assay: In vitro antibacterial activity of the peptide was tested against Escherichia coli
# [2] = tested on: Mus musculus; assay: In vivo antimicrobial activity of 500 microg peptide against Brucella abortus in chronically infected BALB/c mice
# [3] = tested on: Staphylococcus aureus; assay: In vitro antibacterial activity of the peptide was tested against Staphylococcus aureus
# [4] = % helicity of the compound
# [5] = tested on: Mus musculus; assay: In vivo antimicrobial activity of 1 mg peptide against Brucella abortus in chronically infected BALB/c mice
Compound,MIC [1],Reduction [2],MIC [3],Helicity [4],Reduction [5]
CC(=O)N[C@@H](CCCCN)C(=O)N[C@@H](CCCCN)C(=O)NC(C)(C)C(=O)NC(C)(C)C(=O)N[C@@H](CCCCN)C(=O)NC(C)(C)C(=O)NC(C)(C)C(=O)N[C@@H](CCCCN)C(=O)N[C@@H](CCCCN)C(=O)NC(C)(C)C(=O)NC(C)(C)C(N)=O (Ac-KK[Aib][Aib]K[Aib][Aib]KK[Aib][Aib]-NH2),6.6 µM,30%,212 µM,,
CC(C)(N)C(=O)NC(C)(C)C(=O)N[C@@H](CCCCN)C(=O)N[C@H](CCCCN)C(=O)NC(C)(C)C(=O)NC(C)(C)C(=O)N[C@@H](CCCCN)C(=O)NC(C)(C)C(=O)NC(C)(C)C(=O)N[C@H](CCCCN)C(=O)N[C@@H](CCCCN)C(=O)NC(C)(C)C(=O)NC(C)(C)C(=O)N[C@H](CCCCN)C(=O)O,,,,42%,
CC(C)(N)C(=O)NC(C)(C)C(=O)N[C@H](CCCCN)C(=O)NC1(C(=O)NC(C)(C)C(=O)NC(C)(C)C(=O)N[C@H](CCCCN)C(=O)NC2(C(=O)NC(C)(C)C(=O)NC(C)(C)C(=O)O)CCNCC2)CCNCC1,,,,43%,
CC(C)(NC(=O)C(C)(C)NC(=O)[C@H](CCCCN)NC(=O)[C@H](CCCCN)NC(=O)C(C)(C)NC(=O)C(C)(C)NC(=O)[C@H](CCCCN)NC(=O)C(C)(C)NC(=O)C(C)(C)NC(=O)[C@H](CCCCN)NC(=O)[C@H](CCCCN)NC(=O)C(C)(C)NC(=O)C(C)(C)NC(=O)[C@@H](N)CCCCN)C(N)=O (H-K[Aib][Aib]KK[Aib][Aib]K[Aib][Aib]KK[Aib][Aib]-NH2),5.5 µM,<73%,11 µM,,
NCCCC[C@H](NC(=O)[C@H](CCCCN)NC(=O)C1(NC(=O)C2(NC(=O)[C@H](CCCCN)NC(=O)C3(NC(=O)C4(NC(=O)[C@H](CCCCN)NC(=O)[C@H](CCCCN)NC(=O)C5(NC(=O)C6(NC(=O)[C@@H](N)CCCCN)CCCCC6)CCCCC5)CCCCC4)CCCCC3)CCCCC2)CCCCC1)C(=O)NC1(C(N)=O)CCCCC1 (H-K[Ac6c][Ac6c]KK[Ac6c][Ac6c]K[Ac6c][Ac6c]KK[Ac6c]-NH2),4.5 µM,,2.2 µM,,
CC(C)(NC(=O)C(C)(C)NC(=O)[C@H](CCCCN)NC(=O)[C@H](CCCCN)NC(=O)C(C)(C)NC(=O)C(C)(C)NC(=O)[C@H](CCCCN)NC(=O)C(C)(C)NC(=O)C(C)(C)NC(=O)[C@H](CCCCN)NC(=O)[C@@H](N)CCCCN)C(N)=O (H-KK[Aib][Aib]K[Aib][Aib]KK[Aib][Aib]-NH2),55 µM,<63%,> 220 µM,,
NCCCC[C@H](NC(=O)[C@H](CCCCN)NC(=O)C1(NC(=O)C2(NC(=O)[C@H](CCCCN)NC(=O)C3(NC(=O)C4(NC(=O)[C@H](CCCCN)NC(=O)[C@@H](N)CCCCN)CCCCC4)CCCCC3)CCCCC2)CCCCC1)C(=O)NC1(C(N)=O)CCCCC1 (H-KK[Ac6c][Ac6c]K[Ac6c][Ac6c]KK[Ac6c]-NH2),5.7 µM,,2.8 µM,,
NCCCC[C@H](NC(=O)[C@H](CCCCN)NC(=O)C1(NC(=O)C2(NC(=O)[C@H](CCCCN)NC(=O)C3(NC(=O)C4(NC(=O)[C@H](CCCCN)NC(=O)[C@@H](N)CCCCN)CCCCC4)CCCCC3)CCCCC2)CCCCC1)C(=O)NC1(C(=O)NC2(C(N)=O)CCCCC2)CCCCC1 (H-KK[Ac6c][Ac6c]K[Ac6c][Ac6c]KK[Ac6c][Ac6c]-NH2),5.2 µM,,2.6 µM,,
CC(C)(N)C(=O)NC(C)(C)C(=O)N[C@@H](CCCCN)C(=O)N[C@H](CCCCN)C(=O)NC(C)(C)C(=O)NC(C)(C)C(=O)N[C@@H](CCCCN)C(=O)NC(C)(C)C(=O)NC(C)(C)C(=O)N[C@H](CCCCN)C(=O)N[C@@H](CCCCN)C(=O)O,,,,35%,
CC(C)(N)C(=O)NC(C)(C)C(=O)NC1(C(=O)N[C@@H](CCCCN)C(=O)NC(C)(C)C(=O)NC(C)(C)C(=O)NC2(C(=O)N[C@@H](CCCCN)C(=O)NC(C)(C)C(=O)NC(C)(C)C(N)=O)CCNCC2)CCNCC1 (H-[Aib][Aib][Api]K[Aib][Aib][Api]K[Aib][Aib]-NH2),7.7 µM,90%,123 µM,,
H-KAAKKAAKAAKKAA-NH2,> 178 µM,,> 178 µM,,6%
NCCCC[C@H](NC(=O)[C@@H](CCCCN)NC(=O)C1(NC(=O)C2(NC(=O)[C@H](CCCCN)NC(=O)C3(NC(=O)C4(NC(=O)[C@@H](CCCCN)NC(=O)[C@H](CCCCN)NC(=O)C5(N)CCCCC5)CCCCC4)CCCCC3)CCCCC2)CCCCC1)C(=O)O,,,,43%,
